# Laboratory results published in ChEMBL document CHEMBL5442219.
# Columns and labels:
# Details in all cases: Compound concentration 10 µM
# [1] = target: T1, Alpha-1A adrenergic receptor (Homo sapiens) (UniProt P35348)
# T1 sequence (whole entry): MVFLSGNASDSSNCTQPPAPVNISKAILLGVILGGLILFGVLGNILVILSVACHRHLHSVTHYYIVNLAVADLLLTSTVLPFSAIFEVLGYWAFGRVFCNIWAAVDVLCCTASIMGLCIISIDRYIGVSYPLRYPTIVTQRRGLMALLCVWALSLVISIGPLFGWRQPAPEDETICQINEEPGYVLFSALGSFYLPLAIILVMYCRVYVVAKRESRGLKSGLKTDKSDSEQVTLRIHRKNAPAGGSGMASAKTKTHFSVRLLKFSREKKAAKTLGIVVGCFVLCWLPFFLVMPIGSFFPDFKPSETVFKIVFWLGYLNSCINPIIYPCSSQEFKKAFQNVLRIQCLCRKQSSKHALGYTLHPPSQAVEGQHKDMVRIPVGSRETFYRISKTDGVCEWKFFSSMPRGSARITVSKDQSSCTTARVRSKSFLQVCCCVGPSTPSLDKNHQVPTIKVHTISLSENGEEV
# Description: PDSP Primary Binding target: ADRA1A - Compounds are tested at 10 uM concentration, plate are incubated at room temperature in the dark for 90 minutes. Reaction are stopped by vacuum filtration onto 0.3% polyethyleneimine soaked filter mats using Filtermate harvester. Scintilation cocktail is then melted onto microwave-dried filters on a hot plate and the radio activity is counted in Microbia counter.
# [2] = target: T2, Alpha-1B adrenergic receptor (Homo sapiens) (UniProt P35368)
# T2 sequence (whole entry): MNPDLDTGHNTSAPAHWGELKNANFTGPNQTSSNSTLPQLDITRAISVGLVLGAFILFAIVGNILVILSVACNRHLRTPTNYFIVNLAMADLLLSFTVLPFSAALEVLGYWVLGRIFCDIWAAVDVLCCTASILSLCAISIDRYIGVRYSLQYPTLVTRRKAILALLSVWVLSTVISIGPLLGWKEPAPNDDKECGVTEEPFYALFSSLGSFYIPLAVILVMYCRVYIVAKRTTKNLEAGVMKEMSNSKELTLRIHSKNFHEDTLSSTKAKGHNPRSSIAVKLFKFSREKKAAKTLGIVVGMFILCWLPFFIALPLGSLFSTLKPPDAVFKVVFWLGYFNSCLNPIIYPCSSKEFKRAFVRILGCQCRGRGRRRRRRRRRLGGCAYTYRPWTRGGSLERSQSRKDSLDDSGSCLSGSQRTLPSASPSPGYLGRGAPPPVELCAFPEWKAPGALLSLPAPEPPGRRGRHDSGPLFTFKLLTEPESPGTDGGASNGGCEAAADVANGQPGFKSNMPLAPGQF
# Description: PDSP Primary Binding target: ADRA1B - Compounds are tested at 10 uM concentration, plate are incubated at room temperature in the dark for 90 minutes. Reaction are stopped by vacuum filtration onto 0.3% polyethyleneimine soaked filter mats using Filtermate harvester. Scintilation cocktail is then melted onto microwave-dried filters on a hot plate and the radio activity is counted in Microbia counter.
# [3] = target: T3, Alpha-1D adrenergic receptor (Homo sapiens) (UniProt P25100)
# T3 sequence (whole entry): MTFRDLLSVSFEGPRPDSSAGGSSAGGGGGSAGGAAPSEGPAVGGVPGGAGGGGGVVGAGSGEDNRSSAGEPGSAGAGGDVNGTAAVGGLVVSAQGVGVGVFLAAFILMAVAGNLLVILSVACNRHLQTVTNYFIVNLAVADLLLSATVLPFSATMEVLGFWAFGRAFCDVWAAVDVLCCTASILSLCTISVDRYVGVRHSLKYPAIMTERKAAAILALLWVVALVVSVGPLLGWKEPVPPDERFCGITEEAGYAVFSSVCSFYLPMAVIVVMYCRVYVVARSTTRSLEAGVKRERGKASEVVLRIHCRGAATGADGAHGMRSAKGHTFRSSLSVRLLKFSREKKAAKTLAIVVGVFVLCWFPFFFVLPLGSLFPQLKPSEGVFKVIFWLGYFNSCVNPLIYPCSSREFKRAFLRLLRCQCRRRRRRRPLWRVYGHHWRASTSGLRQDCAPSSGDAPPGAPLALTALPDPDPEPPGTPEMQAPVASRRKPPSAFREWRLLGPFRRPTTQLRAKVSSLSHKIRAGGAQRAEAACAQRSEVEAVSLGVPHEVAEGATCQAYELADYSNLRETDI
# Description: PDSP Primary Binding target: ADRA1D - Compounds are tested at 10 uM concentration, plate are incubated at room temperature in the dark for 90 minutes. Reaction are stopped by vacuum filtration onto 0.3% polyethyleneimine soaked filter mats using Filtermate harvester. Scintilation cocktail is then melted onto microwave-dried filters on a hot plate and the radio activity is counted in Microbia counter.
# [4] = target: T4, Muscarinic acetylcholine receptor M2 (Homo sapiens) (UniProt P08172)
# T4 sequence (whole entry): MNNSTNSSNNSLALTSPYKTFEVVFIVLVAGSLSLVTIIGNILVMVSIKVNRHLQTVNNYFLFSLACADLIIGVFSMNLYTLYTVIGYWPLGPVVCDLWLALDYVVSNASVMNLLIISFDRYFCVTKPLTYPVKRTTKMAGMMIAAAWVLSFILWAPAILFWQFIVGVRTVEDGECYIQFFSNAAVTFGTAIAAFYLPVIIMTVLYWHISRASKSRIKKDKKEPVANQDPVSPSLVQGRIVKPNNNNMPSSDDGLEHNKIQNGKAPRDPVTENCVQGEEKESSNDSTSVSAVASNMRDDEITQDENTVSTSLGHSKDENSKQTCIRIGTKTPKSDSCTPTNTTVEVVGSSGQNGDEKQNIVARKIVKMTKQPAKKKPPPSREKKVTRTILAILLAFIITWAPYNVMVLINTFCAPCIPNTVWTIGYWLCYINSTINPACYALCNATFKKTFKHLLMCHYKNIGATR
# Description: PDSP Primary Binding target: CHRM2 - Compounds are tested at 10 uM concentration, plate are incubated at room temperature in the dark for 90 minutes. Reaction are stopped by vacuum filtration onto 0.3% polyethyleneimine soaked filter mats using Filtermate harvester. Scintilation cocktail is then melted onto microwave-dried filters on a hot plate and the radio activity is counted in Microbia counter.
# [5] = target: Muscarinic acetylcholine receptor M3 (Homo sapiens) (UniProt P20309)
# Description: PDSP Primary Binding target: CHRM3 - Compounds are tested at 10 uM concentration, plate are incubated at room temperature in the dark for 90 minutes. Reaction are stopped by vacuum filtration onto 0.3% polyethyleneimine soaked filter mats using Filtermate harvester. Scintilation cocktail is then melted onto microwave-dried filters on a hot plate and the radio activity is counted in Microbia counter.
# [6] = target: D(1B) dopamine receptor (Homo sapiens) (UniProt P21918)
# Description: PDSP Primary Binding target: DRD5 - Compounds are tested at 10 uM concentration, plate are incubated at room temperature in the dark for 90 minutes. Reaction are stopped by vacuum filtration onto 0.3% polyethyleneimine soaked filter mats using Filtermate harvester. Scintilation cocktail is then melted onto microwave-dried filters on a hot plate and the radio activity is counted in Microbia counter.
# [7] = target: Histamine H1 receptor (Homo sapiens) (UniProt P35367)
# Description: PDSP Primary Binding target: HRH1 - Compounds are tested at 10 uM concentration, plate are incubated at room temperature in the dark for 90 minutes. Reaction are stopped by vacuum filtration onto 0.3% polyethyleneimine soaked filter mats using Filtermate harvester. Scintilation cocktail is then melted onto microwave-dried filters on a hot plate and the radio activity is counted in Microbia counter.
# [8] = target: T5, 5-hydroxytryptamine receptor 1A (Homo sapiens) (UniProt P08908)
# T5 sequence (whole entry): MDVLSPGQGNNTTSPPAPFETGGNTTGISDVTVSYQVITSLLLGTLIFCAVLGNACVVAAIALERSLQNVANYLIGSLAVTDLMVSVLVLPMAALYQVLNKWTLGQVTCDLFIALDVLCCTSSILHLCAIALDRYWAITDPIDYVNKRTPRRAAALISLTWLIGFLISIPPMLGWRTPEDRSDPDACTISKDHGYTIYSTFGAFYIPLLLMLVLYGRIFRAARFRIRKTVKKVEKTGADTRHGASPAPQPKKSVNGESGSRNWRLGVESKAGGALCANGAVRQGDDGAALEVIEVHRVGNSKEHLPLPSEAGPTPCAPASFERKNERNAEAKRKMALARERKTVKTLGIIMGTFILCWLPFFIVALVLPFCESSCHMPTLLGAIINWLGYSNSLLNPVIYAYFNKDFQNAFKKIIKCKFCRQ
# Description: PDSP Primary Binding target: HTR1A - Compounds are tested at 10 uM concentration, plate are incubated at room temperature in the dark for 90 minutes. Reaction are stopped by vacuum filtration onto 0.3% polyethyleneimine soaked filter mats using Filtermate harvester. Scintilation cocktail is then melted onto microwave-dried filters on a hot plate and the radio activity is counted in Microbia counter.
# [9] = target: Delta-type opioid receptor (Homo sapiens) (UniProt P41143)
# Description: PDSP Primary Binding target: OPRD1 - Compounds are tested at 10 uM concentration, plate are incubated at room temperature in the dark for 90 minutes. Reaction are stopped by vacuum filtration onto 0.3% polyethyleneimine soaked filter mats using Filtermate harvester. Scintilation cocktail is then melted onto microwave-dried filters on a hot plate and the radio activity is counted in Microbia counter.
# [10] = target: Translocator protein (Homo sapiens) (UniProt P30536)
# Description: PDSP Primary Binding target: TSPO - Compounds are tested at 10 uM concentration, plate are incubated at room temperature in the dark for 90 minutes. Reaction are stopped by vacuum filtration onto 0.3% polyethyleneimine soaked filter mats using Filtermate harvester. Scintilation cocktail is then melted onto microwave-dried filters on a hot plate and the radio activity is counted in Microbia counter.
# [11] = target: 5-hydroxytryptamine receptor 5A (Homo sapiens) (UniProt P47898)
# Description: PDSP Primary Binding target: HTR5A - Compounds are tested at 10 uM concentration, plate are incubated at room temperature in the dark for 90 minutes. Reaction are stopped by vacuum filtration onto 0.3% polyethyleneimine soaked filter mats using Filtermate harvester. Scintilation cocktail is then melted onto microwave-dried filters on a hot plate and the radio activity is counted in Microbia counter.
# [12] = target: Kappa-type opioid receptor (Homo sapiens) (UniProt P41145)
# Kappa-type opioid receptor (Homo sapiens), sequence (P41145 whole entry): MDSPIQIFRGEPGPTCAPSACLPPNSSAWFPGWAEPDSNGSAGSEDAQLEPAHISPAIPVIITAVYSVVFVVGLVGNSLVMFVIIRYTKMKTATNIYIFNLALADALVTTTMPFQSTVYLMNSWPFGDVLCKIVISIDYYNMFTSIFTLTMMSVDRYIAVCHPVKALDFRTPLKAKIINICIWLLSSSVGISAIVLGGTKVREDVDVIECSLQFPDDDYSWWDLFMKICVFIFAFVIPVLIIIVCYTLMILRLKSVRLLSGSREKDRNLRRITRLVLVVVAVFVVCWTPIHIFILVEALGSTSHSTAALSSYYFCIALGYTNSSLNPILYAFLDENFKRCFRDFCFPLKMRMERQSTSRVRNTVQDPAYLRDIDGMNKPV
# Description: PDSP Primary Binding target: OPRK1 - Compounds are tested at 10 uM concentration, plate are incubated at room temperature in the dark for 90 minutes. Reaction are stopped by vacuum filtration onto 0.3% polyethyleneimine soaked filter mats using Filtermate harvester. Scintilation cocktail is then melted onto microwave-dried filters on a hot plate and the radio activity is counted in Microbia counter.
# D(1B) dopamine receptor (Homo sapiens), sequence (P21918 whole entry): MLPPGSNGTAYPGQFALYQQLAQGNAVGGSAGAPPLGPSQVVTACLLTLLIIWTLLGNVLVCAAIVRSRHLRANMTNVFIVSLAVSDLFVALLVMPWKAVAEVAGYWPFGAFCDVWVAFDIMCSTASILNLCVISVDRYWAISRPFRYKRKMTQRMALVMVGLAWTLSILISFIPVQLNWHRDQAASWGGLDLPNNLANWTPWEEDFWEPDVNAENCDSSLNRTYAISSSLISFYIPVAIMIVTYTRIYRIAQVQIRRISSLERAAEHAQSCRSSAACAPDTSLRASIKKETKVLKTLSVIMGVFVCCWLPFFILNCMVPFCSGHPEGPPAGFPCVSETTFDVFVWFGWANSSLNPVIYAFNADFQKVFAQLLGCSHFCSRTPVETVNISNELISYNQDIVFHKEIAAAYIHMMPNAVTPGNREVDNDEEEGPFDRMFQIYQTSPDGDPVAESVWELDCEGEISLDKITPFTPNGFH
# Histamine H1 receptor (Homo sapiens), sequence (P35367 whole entry): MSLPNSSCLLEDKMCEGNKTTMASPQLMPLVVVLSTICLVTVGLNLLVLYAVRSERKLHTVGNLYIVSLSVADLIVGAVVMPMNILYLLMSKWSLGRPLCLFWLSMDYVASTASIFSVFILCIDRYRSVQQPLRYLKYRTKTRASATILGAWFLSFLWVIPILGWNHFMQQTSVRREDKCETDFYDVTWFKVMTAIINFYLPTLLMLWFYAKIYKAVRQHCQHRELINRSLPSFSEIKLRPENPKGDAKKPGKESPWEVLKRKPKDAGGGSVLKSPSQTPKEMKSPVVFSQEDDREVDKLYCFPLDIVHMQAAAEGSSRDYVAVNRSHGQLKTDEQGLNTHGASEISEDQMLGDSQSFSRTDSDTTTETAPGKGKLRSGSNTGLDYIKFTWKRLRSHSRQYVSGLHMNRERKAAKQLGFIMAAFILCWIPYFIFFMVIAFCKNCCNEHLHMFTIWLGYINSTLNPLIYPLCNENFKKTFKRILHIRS
# 5-hydroxytryptamine receptor 5A (Homo sapiens), sequence (P47898 whole entry): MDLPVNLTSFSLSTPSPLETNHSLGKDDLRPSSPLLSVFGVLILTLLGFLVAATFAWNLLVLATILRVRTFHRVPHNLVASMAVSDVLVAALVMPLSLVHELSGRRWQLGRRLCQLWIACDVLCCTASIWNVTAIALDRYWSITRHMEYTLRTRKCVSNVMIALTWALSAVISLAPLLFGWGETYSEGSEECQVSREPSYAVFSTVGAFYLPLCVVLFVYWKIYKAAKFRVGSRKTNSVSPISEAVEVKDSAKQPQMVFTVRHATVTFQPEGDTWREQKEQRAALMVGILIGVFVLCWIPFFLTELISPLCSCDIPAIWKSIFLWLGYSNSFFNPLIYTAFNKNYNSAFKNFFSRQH
# Delta-type opioid receptor (Homo sapiens), sequence (P41143 whole entry): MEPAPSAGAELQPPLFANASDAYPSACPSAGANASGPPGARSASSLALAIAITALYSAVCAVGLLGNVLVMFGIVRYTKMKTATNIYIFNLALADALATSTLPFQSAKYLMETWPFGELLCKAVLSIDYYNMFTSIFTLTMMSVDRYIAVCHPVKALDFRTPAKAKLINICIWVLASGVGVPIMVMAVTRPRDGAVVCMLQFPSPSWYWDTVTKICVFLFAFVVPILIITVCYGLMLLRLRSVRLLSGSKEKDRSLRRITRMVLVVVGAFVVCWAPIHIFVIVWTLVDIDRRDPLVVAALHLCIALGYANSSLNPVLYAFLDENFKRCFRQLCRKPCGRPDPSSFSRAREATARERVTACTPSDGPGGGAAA
# Translocator protein (Homo sapiens), sequence (P30536 whole entry): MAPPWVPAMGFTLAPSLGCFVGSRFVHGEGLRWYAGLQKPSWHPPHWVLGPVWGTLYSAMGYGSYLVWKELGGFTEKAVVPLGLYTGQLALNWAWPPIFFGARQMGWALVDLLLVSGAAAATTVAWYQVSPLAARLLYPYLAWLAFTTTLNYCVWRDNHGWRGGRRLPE
# Muscarinic acetylcholine receptor M3 (Homo sapiens), sequence (P20309 whole entry, looked up): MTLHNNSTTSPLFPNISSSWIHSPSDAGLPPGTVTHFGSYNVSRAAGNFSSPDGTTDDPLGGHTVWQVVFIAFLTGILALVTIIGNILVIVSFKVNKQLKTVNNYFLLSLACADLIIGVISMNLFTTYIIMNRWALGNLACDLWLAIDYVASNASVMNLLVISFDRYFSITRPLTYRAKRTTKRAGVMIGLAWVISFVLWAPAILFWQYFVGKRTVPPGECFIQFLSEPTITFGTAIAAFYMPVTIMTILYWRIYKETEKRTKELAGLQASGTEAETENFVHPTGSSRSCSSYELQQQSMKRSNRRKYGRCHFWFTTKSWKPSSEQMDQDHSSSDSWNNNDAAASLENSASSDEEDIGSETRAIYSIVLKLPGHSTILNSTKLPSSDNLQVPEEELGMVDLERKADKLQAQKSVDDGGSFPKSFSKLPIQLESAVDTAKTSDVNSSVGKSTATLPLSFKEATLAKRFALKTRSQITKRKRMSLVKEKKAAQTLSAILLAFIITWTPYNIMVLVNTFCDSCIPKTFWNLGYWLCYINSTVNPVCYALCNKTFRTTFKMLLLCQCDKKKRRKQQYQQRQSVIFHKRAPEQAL
SMILES,inhibition [1] [%],inhibition [2] [%],inhibition [3] [%],inhibition [4] [%],inhibition [5] [%],inhibition [6] [%],inhibition [7] [%],inhibition [8] [%],inhibition [9] [%],inhibition [10] [%],inhibition [11] [%],inhibition [12] [%]
CCN(CC)CCCCC1CCN(CC(=O)N2c3ccccc3C(=O)Nc3cccnc32)CC1,-8.07,-0.95,-4.13,81.4,88.7,82.5,-7.08,0.4,24.6,-2.79,–,–
CCOC(=O)c1c(C)[nH]c2ccc3c(c12)CN1CCc2cc(OC)ccc2C1O3 (centres undefined),41.3,27.5,36.5,22.6,69.2,–,24.9,–,-2.17,28.3,31,57.4
C[C@@H](NCCc1ccc(O)cc1)[C@@H](O)c1ccc(O)cc1 (relative stereo),7.01,21.4,0.11,3.91,18.1,–,24.2,-2.23,17.5,3.95,–,23.2
C[C@H](Cc1cc2c(c(C(N)=O)c1)N(CCCO)CC2)NCCOc1ccccc1OCC(F)(F)F,90.7,81.6,86.5,-1.87,-2.64,–,62.9,100,–,2.96,25.3,4.22
Cc1c(OCc2cccc(-c3ccc(C(=O)O)cc3)c2)cc2c(c1C)C(=O)C(C1CCCC1)C2 (centres undefined),48.4,63.1,60,32.3,34.5,–,-3.97,-4.54,-8.42,17.6,–,-0.11
Cc1nc(C(=O)N2CCC[C@H]2Cc2nnc(-c3ccccc3)o2)c(-c2ccccc2F)s1,1.08,9.45,26.4,71.2,-8.01,–,30.3,3.86,-2.06,57.6,12.1,57.7
CCCCCNC(=O)NS(=O)(=O)c1cc([N+](=O)[O-])ccc1NC1CCCCC1,-4,13.4,6.55,-9.24,16.6,4.44,12.8,1.18,8.56,34.5,–,14.7
O=C(O)CC/C=C\C[C@@H]1CO[C@H](c2ccccc2Cl)O[C@@H]1c1ccccc1O,-9.2,-9.67,–,-3.76,6.61,-4.01,33.4,16.9,46,8.35,–,5.7
Cc1csc2c(N[C@@H](C)CN3CCN(S(=O)(=O)c4ccc(Cl)c(Cl)c4)CC3)ncnc12,-5.96,7.3,-3.91,1.88,-6,5.96,20.4,17,4.01,73.6,–,85.4
CCCSc1nc(N[C@@H]2C[C@H]2c2ccc(F)c(F)c2)c2nnn([C@@H]3C[C@H](OCCO)[C@@H](O)[C@H]3O)c2n1,11.7,–,11.3,-1.83,–,2.95,16.1,11.6,17.9,46,33.2,27.5
C[C@H](NC[C@H](O)CP(=O)(O)CC1CCCCC1)c1ccc(Cl)c(Cl)c1,1.74,6.11,8.86,40.4,-3.76,–,9.98,-7.25,-5.34,–,-8.92,52.3
O=c1ccn([C@@H]2O[C@H](COP(=O)(O)OP(=O)(O)O)[C@@H](O)[C@H]2O)c(=O)[nH]1,-6.92,-6.51,–,15.9,2.51,-4.32,34.8,5.47,14.1,5.14,–,6.04
COc1ccc(Br)cc1S(=O)(=O)NC(=O)/C=C/c1ccccc1Cc1ccc2ccccc2c1,17.8,-0.54,16.2,40.7,12.9,-9.64,9.07,9.76,-2.75,17.7,–,1.49
CCCCc1nc(Cl)c(CO)n1Cc1ccc(-c2ccccc2-c2nnn[nH]2)cc1,-0.59,-2.24,13.1,-0.57,–,-1.67,–,19.9,19.2,5.8,16.9,–
COc1ccc(/C=C/CCCCOc2ccc(C(=O)c3cccc(C(=O)O)c3)cc2CCC(=O)O)cc1,11.7,-5.5,1.82,7.46,-5.39,–,18.1,30.3,46.8,35.5,-8.69,10.7
